Values of other authors, collected in patent US10434065B2, “Microfluidic liposome synthesis, purification and active drug loading” (University of Maryland, College Park, priority 2013, dated 2019).
Structures can show the parent of a compound that is named as a salt.

Q: Which pKa does the source give for `CN(C)c1ccc2cc3ccc(N(C)C)cc3nc2c1` [AO, Acridine Orange hydrochloride] here?
A: The pKa was 10.4.
